Assay results reported in patent US20260028354A1, “TETRAHYDRONAPHTHALENE DERIVATIVES AS ESTROGEN RECEPTOR DEGRADERS” (REGENT OF THE UNIVERSITY OF MICHIGAN, priority 2022, published 2026).
Like-named read-outs stand apart in the source and are kept apart here.

Key:
[1] = Cell growth assay (WST-8) for "B" compounds; assay type: cell-based; conditions: T47D cell line, read-out: Cell growth Inhibition in T47D cell line IC50
How it was run: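 Cells seeded at 1500/well overnight, then exposed to compounds for 4 days. 10% WST-8 added for 2.5 h at 37 °C and absorbance read at 450 nm. Growth given as absorbance relative to vehicle control, from three repeats.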

ER = ER (Homo sapiens (Human), UniProt P03372); experiment: In-cell western blot analysis of ER for "B" compounds; assay type: cell-based; conditions: 16 hours, read-out: ICW DC50
Chain of ER (P03372 whole entry): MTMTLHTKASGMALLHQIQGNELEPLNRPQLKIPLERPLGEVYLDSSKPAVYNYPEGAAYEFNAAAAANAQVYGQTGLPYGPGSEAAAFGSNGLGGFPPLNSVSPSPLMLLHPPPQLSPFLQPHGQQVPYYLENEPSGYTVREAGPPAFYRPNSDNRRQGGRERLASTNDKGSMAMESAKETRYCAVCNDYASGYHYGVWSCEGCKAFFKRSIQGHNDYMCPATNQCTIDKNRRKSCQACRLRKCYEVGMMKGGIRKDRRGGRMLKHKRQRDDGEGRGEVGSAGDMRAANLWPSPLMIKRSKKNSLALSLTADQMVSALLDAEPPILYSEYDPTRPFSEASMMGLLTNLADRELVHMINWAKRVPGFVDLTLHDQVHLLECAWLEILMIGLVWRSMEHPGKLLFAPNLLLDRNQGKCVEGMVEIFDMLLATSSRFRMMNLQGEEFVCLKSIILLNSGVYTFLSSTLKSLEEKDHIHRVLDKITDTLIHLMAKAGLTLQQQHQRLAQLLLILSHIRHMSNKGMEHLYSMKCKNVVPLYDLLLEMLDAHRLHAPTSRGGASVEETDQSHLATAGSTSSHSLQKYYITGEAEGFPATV
Procedure: R^T 2h, gentle shaking. Negative control: cells plus secondary antibodies (no primary antibodies); e, wash x 4 with PBS+0.05-0.1% Tween 20, gentel shaking; f, anti-rabbit-680 and anti-mouse-800 (both 1:1000 in LiCor block+0.05% Tween20, R^T 1h, gentle shaking, no light. LI-COR: 0.2% to reduce background; g, wash×4 with PBS+0.05% Tween 20, gental shaking; h, add 100 μL or 25 μL of PBS to each well and read on CLX plate reader. The relative ER percentage in treated cells were obtained by comparing the values of treated wells to those in untreated and DMSO-treated wells as 100%.

Structure (SMILES) | DC50 (ER) [nM] | IC50 ([1]; T47D) [nM] | IC50 [1] [nM]
CN(C(=O)c1ccc2c(c1)OC[C@H]1CN(CC3CC4(CCN(c5ccc([C@@H]6c7ccc(O)cc7CC[C@@H]6c6ccccc6)cc5)CC4)C3)CCN21)C1CCC(=O)NC1=O (stereo partly drawn) [Compound B326, (4aR)-N-(2,6-dioxopiperidin-3-yl)-3-((7-(4-((1R,2S)-6-hydroxy-2-phenyl-1,2,3,4-tetrahydronaphthalen-1-yl)phenyl)-7-azaspiro[3.5]nonan-2-yl)methyl)-N-methyl-1,2,3,4,4a,5-hexahydrobenzo[b]pyrazino[1,2-d][1,4]oxazine-8-carboxamide] | > 100 | 1 to 10 | –
O=C1CCC(N2Cc3cc4c(cc3C2=O)OC[C@@H]2CN(CC3CC5(CCN(c6ccc([C@@H]7c8ccc(O)cc8CC[C@@H]7c7ccccc7)cc6)CC5)CO3)CCN42)C(=O)N1 (stereo partly drawn) [Compound B173, 3-((4aS)-3-((8-(4-((1R,2S)-6-hydroxy-2-phenyl-1,2,3,4-tetrahydronaphthalen-1-yl)phenyl)-2-oxa-8-azaspiro[4.5]decan-3-yl)methyl)-8-oxo-1,2,3,4,4a,5,8,10-octahydro-9H-pyrazino[1′,2′: 4,5][1,4]oxazino[2,3-f]isoindol-9-yl)piperidine-2,6-dione] | > 100 | < 1 | –
O=C1CCC(N2Cc3cc4c(cc3C2=O)CN(CC2COC3(CCN(c5ccc([C@@H]6c7ccc(O)cc7CC[C@@H]6c6ccccc6)cc5)CC3)C2)C4)C(=O)N1 (stereo partly drawn) [Compound B352, 3-(6-((8-(4-((1R,2S)-6-hydroxy-2-phenyl-1,2,3,4-tetrahydronaphthalcn-1-yl)phcnyl)-1-oxa-8-azaspiro[4.5]decan-3-yl)methyl)-1-oxo-3,5,6,7-tetrahydropyrrolo[3,4-f]isoindol-2(1H)-yl)piperidine-2,6-dione] | 10 to 100 | – | 1 to 10
O=C1CCC(N2Cc3cc4c(cc3C2=O)OC[C@@H]2CN(CC3CCC5(CCN(c6ccc([C@@H]7c8ccc(O)cc8CC[C@@H]7c7ccccc7)cc6)CC5)O3)CCN42)C(=O)N1 (stereo partly drawn) [Compound B177, 3-((4aS)-3-((8-(4-((1R,2S)-6-hydroxy-2-phenyl-1,2,3,4-tetrahydronaphthalen-1-yl)phenyl)-1-oxa-8-azaspiro[4.5]decan-2-yl)methyl)-8-oxo-1,2,3,4,4a,5,8,10-octahydro-9H-pyrazino[1′,2′: 4,5][1,4]oxazino[2,3-f]isoindol-9-yl)piperidine-2,6-dione] | > 100 | 1 to 10 | –
O=C1CCC(N2Cc3cc4c(cc3C2=O)OC[C@@H]2CN(C(=O)CN3CCC5(CC3)CN(c3ccc([C@@H]6c7ccc(O)cc7CC[C@@H]6c6ccccc6)cc3)C5)CCN42)C(=O)N1 (stereo partly drawn) [Compound B161, 3-((S)-3-(2-(2-(4-((1R,2S)-6-hydroxy-2-phenyl-1,2,3,4-tetrahydronaphthalen-1-yl)phenyl)-2,7-diazaspiro[3.5]nonan-7-yl)acetyl)-8-oxo-1,2,3,4,4a,5,8,10-octahydro-9H-pyrazino[1′,2′:4,5][1,4]oxazino[2,3-f]isoindol-9-yl)piperidine-2,6-dione] | < 10 | – | –
O=C1CCC(Nc2ccc(C3CCN(CC4CC5(CCN(c6ccc([C@@H]7c8ccc(O)cc8CC[C@@H]7c7ccccc7)cc6)CC5)C4)CC3)cc2F)C(=O)N1 (stereo partly drawn) [Compound B379, 3-((2-fluoro-4-(1-((7-(4-((1R,2S)-6-hydroxy-2-phenyl-1,2,3,4-tetrahydronaphthalen-1-yl)phenyl)-7-azaspiro[3.5]nonan-2-yl)methyl)piperidin-4-yl)phenyl)amino)piperidine-2,6-dione] | > 100 | – | –
O=C1CCC(N2Cc3c(ccc4c3OC[C@H]3CN(C[C@H]5CC[C@H](Nc6ccc([C@@H]7c8ccc(O)cc8CC[C@@H]7c7ccccc7)cc6)CC5)CCN43)C2=O)C(=O)N1 (stereo partly drawn) [Compound B322, 3-((R)-7-(((1R,4R)-4-((4-((1R,2S)-6-hydroxy-2-phenyl-1,2,3,4-tetrahydronaphthalen-1-yl)phenyl)amino)cyclohexyl)methyl)-1-oxo-1,3,5,5a,6,7,8,9-octahydro-2H-pyrazino[1′,2′:4,5][1,4]oxazino[2,3-e]isoindol-2-yl)piperidine-2,6-dione] | < 10 | – | –
O=C1CCC(Nc2ccc(C3CCN(CC4CCN(c5ccc([C@@H]6c7ccc(O)cc7CC[C@@H]6c6ccccc6)cc5)CC4)CC3)cc2F)C(=O)N1 (stereo partly drawn) [Compound B378, 3-((2-fluoro-4-(1-((1-(4-((1R,2S)-6-hydroxy-2-phenyl-1,2,3,4-tetrahydronaphthalen-1-yl)phenyl)piperidin-4-yl)methyl)piperidin-4-yl)phenyl)amino)piperidine-2,6-dione] | > 100 | – | –
O=C1CCC(N2Cc3c(ccc4c3OCC43CCN(C(=O)CN4CCC5(C4)CN(c4ccc([C@@H]6c7ccc(O)cc7CC[C@@H]6c6ccccc6)cc4)C5)CC3)C2=O)C(=O)N1 (stereo partly drawn) [Compound B169, 3-(1′-(2-(2-(4-((1R,2S)-6-hydroxy-2-phenyl-1,2,3,4-tetrahydronaphthalen-1-yl)phenyl)-2,6-diazaspiro[3.4]octan-6-yl)acetyl)-6-oxo-6,8-dihydro-2H,7H-spiro[furo[2,3-e]isoindole-3,4′-piperidin]-7-yl)piperidine-2,6-dione] | < 10 | – | –

More lines, main results first:

DC50 (ER) [nM] | Structure (SMILES) | IC50 ([1]; T47D) [nM] | IC50 [1] [nM]
10 to 100 | O=C1CC[C@H](N2Cc3cc4c(cc3C2=O)OC[C@@H]2CN(CC3CCC5(CN(c6ccc([C@@H]7c8ccc(O)cc8CC[C@@H]7c7ccccc7)cc6)C5)OC3)CCN42)C(=O)N1 (stereo partly drawn) [Compound B349, (3S)-3-((4aS)-3-((2-(4-((1R,2S)-6-hydroxy-2-phenyl-1,2,3,4-tetrahydronaphthalen-1-yl)phenyl)-5-oxa-2-azaspiro[3.5]nonan-7-yl)methyl)-8-oxo-1,2,3,4,4a,5,8,10-octahydro-9H-pyrazino[1′,2′:4,5][1,4]oxazino[2,3-f]isoindol-9-yl)piperidine-2,6-dione] | – | –
10 to 100 | CN1C[C@@H]2CN(C(=O)CN3CC4(CCN(c5ccc([C@@H]6c7ccc(O)cc7CC[C@@H]6c6ccccc6)cc5)CC4)C3)CCN2c2cc3c(cc21)C(=O)N(C1CCC(=O)NC1=O)C3 (stereo partly drawn) [Compound B162, 3-((R)-3-(2-(7-(4-((1R,2S)-6-hydroxy-2-phenyl-1,2,3,4-tetrahydronaphthalen-1-yl)phenyl)-2,7-diazaspiro[3.5]nonan-2-yl)acetyl)-6-methyl-8-oxo-2,3,4,4a,5,6,8,10-octahydropyrazino[1,2-a]pyrrolo[3,4-g]quinoxalin-9(1H)-yl)piperidine-2,6-dione] | – | –
10 to 100 | O=C1CC[C@H](N2Cc3c(ccc4c3OC[C@H]3CN(C[C@H]5CC[C@H](Nc6ccc([C@@H]7c8ccc(O)cc8CC[C@@H]7c7ccccc7)cc6)CC5)CCN43)C2=O)C(=O)N1 [Compound B353, (S)-3-((R)-7-(((1R,4R)-4-((4-((1R,2S)-6-hydroxy-2-phenyl-1,2,3,4-tetrahydronaphthalen-1-yl)phenyl)amino)cyclohexyl)methyl)-1-oxo-1,3,5,5a,6,7,8,9-octahydro-2H-pyrazino[1′,2′:4,5][1,4]oxazino[2,3-e]isoindol-2-yl)piperidine-2,6-dione] | – | –
10 to 100 | O=C1CC[C@H](N2Cc3cc4c(cc3C2=O)OC[C@@H]2CN(C[C@H]3CC[C@@H](Nc5ccc([C@@H]6c7ccc(O)cc7CC[C@@H]6c6ccccc6)cc5)CC3)CCN42)C(=O)N1 [Compound B354, (S)-3-((S)-3-(((1R,4S)-4-((4-((1R,2S)-6-hydroxy-2-phenyl-1,2,3,4-tetrahydronaphthalen-1-yl)phenyl)amino)cyclohexyl)methyl)-8-oxo-1,2,3,4,4a,5,8,10-octahydro-9H-pyrazino[1′,2′:4,5][1,4]oxazino[2,3-f]isoindol-9-yl)piperidine-2,6-dione] | – | –
